According to ChEMBL document CHEMBL4229333, “Effects of rigidity on the selectivity of protein kinase inhibitors” (Eur J Med Chem, 2018):

How the values were obtained:
[1] = biological target: Serine/threonine-protein kinase B-raf (Homo sapiens) (UniProt P15056); test: Inhibition of BRAF (unknown origin) at 1 uM by mobility shift microfluidics platform based assay relative to control
[2] = biological target: Dual specificity mitogen-activated protein kinase kinase 1 (Homo sapiens) (UniProt Q02750); test: Inhibition of MEK1 (unknown origin) at 1 uM by mobility shift microfluidics platform based assay relative to control
[3] = biological target: Ephrin type-A receptor 5 (Homo sapiens) (UniProt P54756); test: Inhibition of EPH-A5 (unknown origin) at 1 uM by mobility shift microfluidics platform based assay relative to control
[4] = biological target: RAC-beta serine/threonine-protein kinase (Homo sapiens) (UniProt P31751); test: Inhibition of AKT2 (unknown origin) at 1 uM by mobility shift microfluidics platform based assay relative to control
[5] = species on record: Homo sapiens; test: Inhibition of CDK/Cyclin E (unknown origin) at 1 uM by mobility shift microfluidics platform based assay relative to control
[6] = biological target: Ribosomal protein S6 kinase beta-1 (Homo sapiens) (UniProt P23443); test: Inhibition of P70S6K1 (unknown origin) at 1 uM by mobility shift microfluidics platform based assay relative to control
[7] = biological target: NT-3 growth factor receptor (Homo sapiens) (UniProt Q16288); test: Inhibition of TRKC (unknown origin) at 1 uM by mobility shift microfluidics platform based assay relative to control
[8] = biological target: Serine/threonine-protein kinase Nek9 (Homo sapiens) (UniProt Q8TD19); test: Inhibition of NEK9 (unknown origin) at 1 uM by mobility shift microfluidics platform based assay relative to control
[9] = biological target: Tyrosine-protein kinase Blk (Homo sapiens) (UniProt P51451); test: Inhibition of BLK (unknown origin) at 1 uM by mobility shift microfluidics platform based assay relative to control
[10] = biological target: Rhodopsin kinase GRK7 (Homo sapiens) (UniProt Q8WTQ7); test: Inhibition of GRK7 (unknown origin) at 1 uM by mobility shift microfluidics platform based assay relative to control
[11] = biological target: Proto-oncogene tyrosine-protein kinase ROS (Homo sapiens) (UniProt P08922); test: Inhibition of ROS (unknown origin) at 1 uM by mobility shift microfluidics platform based assay relative to control
[12] = biological target: Glycogen synthase kinase-3 beta (Homo sapiens) (UniProt P49841); test: Inhibition of GSK-3-beta (unknown origin) at 1 uM by mobility shift microfluidics platform based assay relative to control
[13] = biological target: Cyclin-dependent kinase 1 (Homo sapiens) (UniProt P06493); test: Inhibition of CDK1 (unknown origin) at 1 uM by mobility shift microfluidics platform based assay relative to control
[14] = biological target: Serine/threonine-protein kinase Nek2 (Homo sapiens) (UniProt P51955); test: Inhibition of NEK2 (unknown origin) at 1 uM by mobility shift microfluidics platform based assay relative to control
[15] = biological target: Tyrosine-protein kinase Fes/Fps (Homo sapiens) (UniProt P07332); test: Inhibition of FES (unknown origin) at 1 uM by mobility shift microfluidics platform based assay relative to control
[16] = biological target: Tyrosine-protein kinase ABL2 (Homo sapiens) (UniProt P42684); test: Inhibition of ARG (unknown origin) at 1 uM by mobility shift microfluidics platform based assay relative to control
[17] = biological target: T1, Serine/threonine-protein kinase B-raf (Homo sapiens, UniProt P15056, V600E); test: Inhibition of BRAF V600E mutant (unknown origin) after 20 mins by immunoblotting assay
[18] = biological target: SRSF protein kinase 3 (Homo sapiens) (UniProt Q9UPE1); test: Inhibition of MSSK1 (unknown origin) at 1 uM by mobility shift microfluidics platform based assay relative to control
[19] = biological target: Tyrosine-protein kinase ABL1 (Homo sapiens, UniProt P00519); test: Inhibition of ABL1 (unknown origin) at 1 uM by mobility shift microfluidics platform based assay relative to control
[20] = biological target: Dual specificity protein kinase TTK (Homo sapiens) (UniProt P33981); test: Inhibition of TTK (unknown origin) at 1 uM by mobility shift microfluidics platform based assay relative to control
[21] = biological target: Serine/threonine-protein kinase D1 (Homo sapiens) (UniProt Q15139); test: Inhibition of PRKD1 (unknown origin) at 1 uM by mobility shift microfluidics platform based assay relative to control
[22] = biological target: Serine/threonine-protein kinase 10 (Homo sapiens) (UniProt O94804); test: Inhibition of LOK (unknown origin) at 1 uM by mobility shift microfluidics platform based assay relative to control
[23] = biological target: Mitogen-activated protein kinase 14 (Homo sapiens) (UniProt Q16539); test: Inhibition of P38-alpha (unknown origin) at 1 uM by mobility shift microfluidics platform based assay relative to control
[24] = biological target: Activated CDC42 kinase 1 (Homo sapiens) (UniProt Q07912); test: Inhibition of TNK2 (unknown origin) at 1 uM by mobility shift microfluidics platform based assay relative to control
[25] = biological target: Serine/threonine-protein kinase TAO3 (Homo sapiens) (UniProt Q9H2K8); test: Inhibition of TAOK3 (unknown origin) at 1 uM by mobility shift microfluidics platform based assay relative to control
[26] = biological target: Platelet-derived growth factor receptor beta (Homo sapiens) (UniProt P09619); test: Inhibition of PDGFR-beta (unknown origin) at 1 uM by mobility shift microfluidics platform based assay relative to control
[27] = biological target: Death-associated protein kinase 1 (Homo sapiens) (UniProt P53355); test: Inhibition of DAPK1 (unknown origin) at 1 uM by mobility shift microfluidics platform based assay relative to control
[28] = biological target: T1, Serine/threonine-protein kinase B-raf; test: Inhibition of full length FLAG-tagged BRAF V600E mutant (unknown origin) expressed in HEK293 cells assessed as decrease in MEK phosphorylation by immunoblotting assay; type: cell-based
[29] = biological target: Serine/threonine-protein kinase PAK 1 (Homo sapiens) (UniProt Q13153); test: Inhibition of PAK1 (unknown origin) at 1 uM by mobility shift microfluidics platform based assay relative to control
[30] = biological target: Protein kinase C alpha type (Homo sapiens) (UniProt P17252); test: Inhibition of PKC-alpha (unknown origin) at 1 uM by mobility shift microfluidics platform based assay relative to control
[31] = biological target: Tyrosine-protein kinase Fgr (Homo sapiens) (UniProt P09769); test: Inhibition of FGR (unknown origin) at 1 uM by mobility shift microfluidics platform based assay relative to control
[32] = biological target: Dual specificity tyrosine-phosphorylation-regulated kinase 2 (Homo sapiens) (UniProt Q92630); test: Inhibition of DYRK2 (unknown origin) at 1 uM by mobility shift microfluidics platform based assay relative to control
[33] = biological target: Serine/threonine-protein kinase 3 (Homo sapiens) (UniProt Q13188); test: Inhibition of MST2 (unknown origin) at 1 uM by mobility shift microfluidics platform based assay relative to control
[34] = biological target: Serine/threonine-protein kinase PAK 4 (Homo sapiens) (UniProt O96013); test: Inhibition of PAK4 (unknown origin) at 1 uM by mobility shift microfluidics platform based assay relative to control

T1 sequence (P15056 2-766 V600E limits assumed): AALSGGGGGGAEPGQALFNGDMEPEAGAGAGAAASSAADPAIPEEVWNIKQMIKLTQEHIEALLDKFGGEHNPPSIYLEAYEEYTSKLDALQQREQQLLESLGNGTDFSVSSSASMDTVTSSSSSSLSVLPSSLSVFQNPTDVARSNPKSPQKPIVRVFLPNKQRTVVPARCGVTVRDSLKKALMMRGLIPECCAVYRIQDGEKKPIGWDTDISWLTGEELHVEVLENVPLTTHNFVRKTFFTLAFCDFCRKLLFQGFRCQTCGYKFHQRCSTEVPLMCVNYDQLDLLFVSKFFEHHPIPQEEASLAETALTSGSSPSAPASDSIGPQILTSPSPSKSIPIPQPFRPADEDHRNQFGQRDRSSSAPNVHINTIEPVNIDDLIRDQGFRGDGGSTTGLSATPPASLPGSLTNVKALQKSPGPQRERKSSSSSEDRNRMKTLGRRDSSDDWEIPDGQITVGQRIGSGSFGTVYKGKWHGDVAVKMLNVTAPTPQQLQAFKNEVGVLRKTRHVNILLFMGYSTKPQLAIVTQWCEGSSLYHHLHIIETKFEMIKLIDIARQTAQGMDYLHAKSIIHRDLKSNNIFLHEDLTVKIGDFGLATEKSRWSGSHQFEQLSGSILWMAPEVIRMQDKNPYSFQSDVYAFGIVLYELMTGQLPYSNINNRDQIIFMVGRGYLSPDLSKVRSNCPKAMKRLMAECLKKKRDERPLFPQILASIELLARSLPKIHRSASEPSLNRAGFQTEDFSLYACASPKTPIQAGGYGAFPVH
Sequence of NT-3 growth factor receptor (Homo sapiens) (Q16288 32-839 limits assumed): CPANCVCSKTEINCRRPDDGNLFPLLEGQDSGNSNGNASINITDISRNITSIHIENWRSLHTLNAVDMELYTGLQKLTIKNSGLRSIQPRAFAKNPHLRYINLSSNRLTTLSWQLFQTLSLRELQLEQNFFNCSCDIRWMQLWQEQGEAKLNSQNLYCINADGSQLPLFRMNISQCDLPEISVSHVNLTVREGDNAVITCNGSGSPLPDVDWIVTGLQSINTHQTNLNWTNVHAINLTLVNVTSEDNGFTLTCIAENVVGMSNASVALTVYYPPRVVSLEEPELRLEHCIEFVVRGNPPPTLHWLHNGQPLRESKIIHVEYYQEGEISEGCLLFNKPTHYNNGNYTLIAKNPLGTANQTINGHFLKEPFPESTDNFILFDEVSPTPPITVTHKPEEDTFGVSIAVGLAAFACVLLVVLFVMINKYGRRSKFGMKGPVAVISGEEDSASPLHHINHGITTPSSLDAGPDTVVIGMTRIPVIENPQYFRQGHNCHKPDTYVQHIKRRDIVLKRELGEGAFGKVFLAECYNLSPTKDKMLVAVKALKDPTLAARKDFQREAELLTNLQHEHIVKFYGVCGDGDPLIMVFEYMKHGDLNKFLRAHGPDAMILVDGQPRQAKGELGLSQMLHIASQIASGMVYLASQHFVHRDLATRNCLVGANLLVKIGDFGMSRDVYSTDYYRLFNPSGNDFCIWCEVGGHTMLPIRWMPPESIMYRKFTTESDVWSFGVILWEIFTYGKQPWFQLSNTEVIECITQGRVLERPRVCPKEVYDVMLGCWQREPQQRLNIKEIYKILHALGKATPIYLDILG
Sequence of Ribosomal protein S6 kinase beta-1 (Homo sapiens) (P23443 whole entry, looked up): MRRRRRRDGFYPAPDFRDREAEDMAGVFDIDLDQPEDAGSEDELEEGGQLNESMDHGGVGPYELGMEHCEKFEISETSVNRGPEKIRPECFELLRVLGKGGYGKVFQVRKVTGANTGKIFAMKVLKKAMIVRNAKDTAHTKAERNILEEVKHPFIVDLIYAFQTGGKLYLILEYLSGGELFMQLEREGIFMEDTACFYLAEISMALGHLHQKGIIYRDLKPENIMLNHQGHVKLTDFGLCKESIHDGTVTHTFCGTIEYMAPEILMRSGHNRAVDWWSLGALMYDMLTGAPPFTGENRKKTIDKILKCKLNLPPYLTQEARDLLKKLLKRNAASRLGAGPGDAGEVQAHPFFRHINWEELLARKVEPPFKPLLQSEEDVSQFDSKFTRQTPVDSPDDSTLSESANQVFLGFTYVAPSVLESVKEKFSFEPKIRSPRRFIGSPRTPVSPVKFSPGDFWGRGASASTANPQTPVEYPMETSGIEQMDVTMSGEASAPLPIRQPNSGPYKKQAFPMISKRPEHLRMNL
Sequence of Tyrosine-protein kinase Blk (Homo sapiens) (P51451 2-505 limits assumed): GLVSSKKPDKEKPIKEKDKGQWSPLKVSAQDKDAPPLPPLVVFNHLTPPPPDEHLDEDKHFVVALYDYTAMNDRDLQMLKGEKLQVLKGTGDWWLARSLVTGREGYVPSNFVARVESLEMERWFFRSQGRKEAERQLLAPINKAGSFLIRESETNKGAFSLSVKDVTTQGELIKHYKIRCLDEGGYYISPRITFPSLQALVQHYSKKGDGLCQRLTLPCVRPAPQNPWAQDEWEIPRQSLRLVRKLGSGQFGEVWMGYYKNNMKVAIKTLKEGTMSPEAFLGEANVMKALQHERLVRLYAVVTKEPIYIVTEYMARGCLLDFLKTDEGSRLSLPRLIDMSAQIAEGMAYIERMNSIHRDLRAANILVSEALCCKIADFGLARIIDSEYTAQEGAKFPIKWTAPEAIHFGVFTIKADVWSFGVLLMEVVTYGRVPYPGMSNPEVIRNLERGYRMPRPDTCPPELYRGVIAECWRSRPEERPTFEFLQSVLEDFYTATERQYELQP
Sequence of Dual specificity tyrosine-phosphorylation-regulated kinase 2 (Homo sapiens) (Q92630 whole entry): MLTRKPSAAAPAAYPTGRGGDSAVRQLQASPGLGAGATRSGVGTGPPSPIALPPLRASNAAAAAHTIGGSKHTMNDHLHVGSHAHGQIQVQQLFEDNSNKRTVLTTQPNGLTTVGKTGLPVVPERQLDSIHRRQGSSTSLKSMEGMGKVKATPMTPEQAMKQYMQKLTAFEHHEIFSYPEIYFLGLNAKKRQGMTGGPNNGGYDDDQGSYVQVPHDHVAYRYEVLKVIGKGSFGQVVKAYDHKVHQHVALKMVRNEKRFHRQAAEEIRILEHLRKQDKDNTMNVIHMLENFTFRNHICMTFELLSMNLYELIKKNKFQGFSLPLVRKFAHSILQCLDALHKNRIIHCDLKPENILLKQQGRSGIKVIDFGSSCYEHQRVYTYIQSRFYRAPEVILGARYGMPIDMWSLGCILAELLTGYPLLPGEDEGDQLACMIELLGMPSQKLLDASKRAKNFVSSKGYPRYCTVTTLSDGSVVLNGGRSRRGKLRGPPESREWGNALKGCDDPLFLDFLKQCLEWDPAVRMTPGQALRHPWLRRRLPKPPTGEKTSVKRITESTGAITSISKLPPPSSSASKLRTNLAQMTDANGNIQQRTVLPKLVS
Sequence of Tyrosine-protein kinase Fgr (Homo sapiens) (P09769 2-529 limits assumed): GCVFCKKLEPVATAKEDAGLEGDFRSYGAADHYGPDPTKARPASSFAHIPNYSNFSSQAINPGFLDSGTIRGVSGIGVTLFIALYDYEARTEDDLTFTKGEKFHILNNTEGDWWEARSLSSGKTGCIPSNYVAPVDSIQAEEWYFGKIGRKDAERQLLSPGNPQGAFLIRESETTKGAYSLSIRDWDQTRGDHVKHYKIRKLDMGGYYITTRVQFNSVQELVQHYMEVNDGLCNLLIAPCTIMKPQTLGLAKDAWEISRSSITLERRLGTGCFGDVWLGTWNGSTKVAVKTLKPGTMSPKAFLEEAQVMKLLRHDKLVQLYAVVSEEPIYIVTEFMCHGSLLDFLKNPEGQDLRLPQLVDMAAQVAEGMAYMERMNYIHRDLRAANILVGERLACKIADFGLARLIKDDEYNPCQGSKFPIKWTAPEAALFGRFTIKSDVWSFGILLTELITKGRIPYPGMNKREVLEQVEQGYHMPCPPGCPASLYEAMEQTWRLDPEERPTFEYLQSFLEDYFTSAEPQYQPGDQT
Sequence of Ephrin type-A receptor 5 (Homo sapiens) (P54756 whole entry): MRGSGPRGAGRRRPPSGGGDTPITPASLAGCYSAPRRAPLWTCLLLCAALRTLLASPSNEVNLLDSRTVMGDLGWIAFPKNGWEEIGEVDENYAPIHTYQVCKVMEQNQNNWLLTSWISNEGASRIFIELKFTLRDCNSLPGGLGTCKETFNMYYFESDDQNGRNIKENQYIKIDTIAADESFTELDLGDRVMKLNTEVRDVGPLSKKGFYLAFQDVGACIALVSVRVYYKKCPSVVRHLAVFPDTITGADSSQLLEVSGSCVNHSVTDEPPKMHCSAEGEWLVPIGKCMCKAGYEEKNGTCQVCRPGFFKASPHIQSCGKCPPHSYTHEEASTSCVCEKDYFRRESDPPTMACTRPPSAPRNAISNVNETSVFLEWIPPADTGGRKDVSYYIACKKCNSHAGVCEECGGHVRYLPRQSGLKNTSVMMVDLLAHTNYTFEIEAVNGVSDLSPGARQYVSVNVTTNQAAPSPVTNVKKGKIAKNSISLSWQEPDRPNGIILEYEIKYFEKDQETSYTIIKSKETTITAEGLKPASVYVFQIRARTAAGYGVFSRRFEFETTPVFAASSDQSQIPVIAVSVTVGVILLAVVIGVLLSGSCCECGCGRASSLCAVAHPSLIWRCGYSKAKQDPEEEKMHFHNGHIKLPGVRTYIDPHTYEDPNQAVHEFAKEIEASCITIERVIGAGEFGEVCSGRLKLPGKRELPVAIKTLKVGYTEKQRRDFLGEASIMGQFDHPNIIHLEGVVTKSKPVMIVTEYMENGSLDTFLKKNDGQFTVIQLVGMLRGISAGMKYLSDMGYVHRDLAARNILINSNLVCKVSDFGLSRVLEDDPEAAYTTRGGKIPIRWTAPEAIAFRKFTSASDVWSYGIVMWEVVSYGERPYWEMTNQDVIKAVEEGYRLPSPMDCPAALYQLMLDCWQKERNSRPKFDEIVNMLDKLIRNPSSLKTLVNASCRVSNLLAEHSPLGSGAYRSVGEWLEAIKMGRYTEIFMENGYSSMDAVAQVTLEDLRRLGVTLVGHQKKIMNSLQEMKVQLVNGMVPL

inhibition [1] | inhibition [2] | inhibition [3] | inhibition [4] | inhibition [5] | inhibition [6] | inhibition [7] | inhibition [9] | inhibition [10] | inhibition [11] | inhibition [12] | inhibition [13] | inhibition [14] | inhibition [15] | inhibition [16] | IC50 [17] | inhibition [18] | inhibition [19] | inhibition [20] | Compound | inhibition [8] | further results
92% | -8% | 95% | -10% | -1 to 3% | 1% | 14% | 57% | 5% | 5% | 3% | 0% | 0% | 0% | 94% | 65 nM | 0% | 96% | -3% | CC(C)n1nc(C#Cc2cccc3cc(-c4cccc(C(F)(F)F)c4)ncc23)c2c(N)ncnc21 | -1% | inhibition [21]: 3%; inhibition [22]: 59%; inhibition [23]: 15%; inhibition [24]: 3%; inhibition [25]: 33%; inhibition [26]: 71%; inhibition [27]: -2%; IC50 [28]: 14 nM; inhibition [29]: -1%; inhibition [30]: 2%; inhibition [31]: 71%; inhibition [32]: -3%; inhibition [33]: 2%; inhibition [34]: 2%
101% | 13% | 100% | 0% | 1 to 3% | 5% | 59% | 95% | 1% | 18% | 19% | 6% | -1% | 21% | 99% | 4 nM | 9% | 98% | 33% | CC(C)n1nc(C#Cc2cccc(NC(=O)c3cccc(C(F)(F)F)c3)c2)c2c(N)ncnc21 | 2% | inhibition [21]: 4%; inhibition [22]: 97%; inhibition [23]: 70%; inhibition [24]: 13%; inhibition [25]: 37%; inhibition [26]: 100%; inhibition [27]: -2%; IC50 [28]: 2 nM; inhibition [29]: 0%; inhibition [30]: -7%; inhibition [31]: 99%; inhibition [32]: 11%; inhibition [33]: 2%; inhibition [34]: 0%
